Measured values as given in publication PMC8002351, “Triterpenes and Phenolic Compounds from the Fungus Fuscoporia torulosa: Isolation, Structure Determination and Biological Activity” (Molecules, 2021).
Each block holds one compound with its values, some of them ahead of it.

Tests used:
[1] = DPPH assay; details: 30 min; 550 nm
Experimental: A method based on the description of Miser-Salihoglu E. et al. was applied. The examination was performed on a FLUOstar Optima BMG Labtech plate-reader with 96-well microplates. The samples were measured in a DMSO environment with the volume of 150 µL per sample resulting 1 mg/mL concentration. Every well contained 50 µL (100 µM) of this base solution for the absorbance measurement (30 min; 550 nm). […] For data evaluation GraphPad Prism 6.0 software was utilized. The DPPH (2,2′-diphenyl-1-picrylhydrazyl) reagent necessary for the process was supplied by from Sigma-Aldrich Hungary.

[2] = ORAC assay; details: Trolox equivalent
Experimental: A method based on the description of Mielnik et al. was applied. In summary, 20 µL of the samples were used in 0.01 mg/mL concentration with a 96-well black microplate. In each well, 60 µL of AAPH (12 mM final concentration) and 120 µL of fluorescein solution (70 nM final concentration) were added. The fluorescence alteration of each sample was measured for 3 h with 1.5 min cycle intervals by a FLUOstar Optima BMG Labtech plate-reader. Trolox ((±)-6-hydroxy-2,5,7,8-tetramethyl-chromane-2-carboxylic acid) was used as a standard. Both Trolox and AAPH was supplied by Sigma-Aldrich, Hungary, while Fluorescein was provided by Fluka analytical, Japan. For data analysis, the GraphPad Prism 6.0 software was used. The results were expressed as mmol Trolox equivalent per g of dry material (mmloTE/g).

[3] = molecular target: T1, P-glycoprotein (P-gp) (Homo sapiens, UniProt P08183); assay: Rhodamine 123 accumulation assay (flow cytometry); format: cell-based; design: key to FAR (fluorescence activity ratio): FAR = (Colo320 treated/control)/(Colo205 treated/control); details: for FSC / SSC: Colo 320
T1 construct: Colo 320/MDR-LRP (ATCC-CCL-220.1) resistant to anticancer agents expressing ABCB1
Experimental: The cell numbers of the human colon adenocarcinoma cell lines were adjusted to 2 × 10^6 cells/mL, re-suspended in serum-free RPMI 1640 medium, and distributed in 0.5 mL aliquots into Eppendorf centrifuge tubes. The tested compounds were added at concentrations of 2 or 20 μM, and the samples were incubated for 10 min at room temperature. Tariquidar was applied as positive control at 0.2 μM. DMSO at 2% v/v was used as solvent control. Next, 10 µL (5.2 µM final concentration) of the fluorochrome and ABCB1 substrate rhodamine 123 (Sigma) were added to the samples and the cells were incubated for a further 20 min at 37 °C, washed twice, and re-suspended in 1 mL PBS for analysis. The fluorescence of the cell population was measured with a PartecCyFlow® flow cytometer (Partec, Münster, Germany). The fluorescence activity ratio was calculated as the quotient between the FL-1 of the treated/untreated resistant Colo 320 cell line over the treated/untreated sensitive Colo 205 cell line according to the following equation [31]:(1) FAR = Colo320treated/Colo320control/Colo205treated/Colo205control

[4] = tested on: S. aureus 27,213 (methicillin and ofloxacin resistant clinical isolate); assay: Minimum inhibitory concentration by microdilution method; format: cell-based; details: Staphylococcus aureus; broth dilution, 18 h
[5] = tested on: Colo 205; assay: Assay for cytotoxic effect (MTT); format: cell-based, human; details: for cytotoxic effect (in words): Colo 205, applied concentration up to 100 μM; for IC50: sensitive Colo 205 cells, MTT, 24 h
Experimental: (§1) The human colon adenocarcinoma cell lines, the Colo 205 (ATCC-CCL-222) doxorubicin-sensitive parent and Colo 320/MDR-LRP (ATCC-CCL-220.1) resistant to anticancer agents expressing ABCB1, were purchased from LGC Promochem (Teddington, UK). The cells were cultured in RPMI-1640 medium supplemented with 10% heat-inactivated fetal bovine serum (FBS), 2 mM L-glutamine, 1 mM Na-pyruvate, 100 mM Hepes, nystatin, and a penicillin–streptomycin mixture in concentrations of 100 U/L and 10 mg/L, respectively. The MRC-5 (ATCC CCL-171) human embryonic lung fibroblast cell line (LGC Promochem) was cultured in EMEM medium, supplemented with 1% nonessential amino acid (NEAA) mixture, 10% heat-inactivated FBS, 2 mM L-glutamine, 1 mM Na-pyruvate, nystatin, and a penicillin–streptomycin mixture in concentrations of 100 U/L and 10 mg/L, respectively. The cell lines were incubated in a humidified atmosphere (5% CO2, 95% air) at 37 °C.
(§2) The effects of increasing concentrations of the compounds on cell growth were tested in 96-well flat-bottomed microtiter plates. The two-fold serial dilutions of the tested compounds were made starting with 100 μM. Then, 10^4 of human colonic adenocarcinoma cells in 100 μL of the medium (RPMI-1640) were added to each well, except for the medium control wells. The adherent human embryonic lung fibroblast cell line (10^4/well) was seeded in EMEM medium in 96-well flat-bottomed microtiter plates for 4 h before the assay. The serial dilutions of the compounds were made in a separate plate starting with 100 μM, and then transferred to the plates containing the adherent corresponding cell line. Culture plates were incubated at 37 °C for 24 h; at the end of the incubation period, 20 μL of MTT (thiazolyl blue tetrazolium bromide) solution (from a 5 mg/mL stock solution) were added to each well. After incubation at 37 °C for 4 h, 100 μL of sodium dodecyl sulfate (SDS) solution (10% SDS in 0.01 M HCl) were added to each well and the plates were further incubated at 37 °C overnight. Cell growth was determined by measuring the optical density (OD) at 540 nm (ref. 630 nm) with a Multiscan EX ELISA reader (Thermo Labsystems, Cheshire, WA, USA). Inhibition of cell growth was expressed as IC50 values, defined as the inhibitory dose that reduces the growth of the cells exposed to the tested compounds by 50%. IC50 values and the SD of triplicate experiments were calculated using GraphPad Prism software version 5.00 for Windows with nonlinear regression curve fit (GraphPad Software, San Diego, CA, USA; www.graphpad.com). The statistical analysis of data was performed using GraphPad Prism software version 5.00, applying the two-tailed t-test.

[6] = tested on: MRC-5; assay: Assay for cytotoxic effect (MTT); format: cell-based, human; details: for IC50: normal MRC-5 embryonal fibroblast cells, MTT, 24 h; for cytotoxic effect (in words): MRC-5, applied concentration up to 100 μM
Experimental: as §1, §2

[7] = tested on: Colo 320; assay: Assay for cytotoxic effect (MTT); format: cell-based, human; details: for cytotoxic effect (in words): Colo 320, applied concentration up to 100 μM; for IC50: resistant Colo 320 cells, MTT, 24 h
Experimental: as §1, §2

[8] = tested on: Staphylococcus aureus ATCC 25,923; assay: Minimum inhibitory concentration by microdilution method; format: cell-based; details: ATCC25, broth dilution, 18 h
[9] = tested on: Escherichia coli ATCC 25922; assay: as above; format: cell-based; details: ATCC25922, broth dilution, 18 h
[10] = tested on: Salmonella enterica serovar Typhimurium 14028s; assay: as above; format: cell-based; details: broth dilution, 18 h
[11] = tested on: Colo 320; assay: Checkerboard combination assay with doxorubicin; format: cell-based, human; details: for Fraction affected: Colo 320; for Dm (median-effect dose) in the combination: FuTo III:Doxo ratio 11:1, dose of the named component; for Dm (median-effect dose) in the combination / Dm (median-effect dose), drug alone: Colo 320, 72 h; for Dm (median-effect dose), drug alone: single drug, CompuSyn
Experimental: A checkerboard microplate method was applied to study the effect of drug interactions between the compound 8 and the chemotherapeutic drug doxorubicin. The assay was carried out on Colo 320 colon adenocarcinoma cell line. The final concentration of the compounds and doxorubicin used in the combination experiment was chosen in accordance with their cytotoxicity towards this cell line. The dilutions of doxorubicin were made in a horizontal direction for the 100 μL volume, and the dilutions of the compounds were made vertically in the microtiter plate for the 50 μL volume. Then, 6 × 10^3 of Colo 320 cells in 50 μL of the medium were added to each well, except for the medium control wells. The plates were incubated for 72 h at 37 °C in 5% CO2 atmosphere. The cell growth rate was determined after MTT staining. At the end of the incubation period, 20 μL of MTT solution (from a stock solution of 5 mg/mL) were added to each well. After incubation at 37 °C for 4 h, 100 μL of SDS solution (10% in 0.01 M HCI) were added to each well and the plates were further incubated at 37 °C overnight. OD was measured at 540 nm (ref. 630 nm) with a Multiscan EX ELISA reader. Combination index (CI) values at 50% of the growth inhibition dose (ED50) were determined using CompuSyn software (ComboSyn, Inc., Paramus, NJ, USA) to plot four to five data points at each ratio. CI values were calculated by means of the median-effect equation, according to the Chou–Talalay method, where CI < 1, CI = 1, and CI > 1 represent synergism, additive effect (or no interaction), and antagonism, respectively.

[12] = Fa 0.6829, combination FuTo III + Doxo
[13] = Fa 0.741889, combination FuTo III + Doxo
[14] = Fa 0.80679, combination FuTo III + Doxo
[15] = Fa 0.912987, combination FuTo III + Doxo

T1 sequence (P08183 whole entry): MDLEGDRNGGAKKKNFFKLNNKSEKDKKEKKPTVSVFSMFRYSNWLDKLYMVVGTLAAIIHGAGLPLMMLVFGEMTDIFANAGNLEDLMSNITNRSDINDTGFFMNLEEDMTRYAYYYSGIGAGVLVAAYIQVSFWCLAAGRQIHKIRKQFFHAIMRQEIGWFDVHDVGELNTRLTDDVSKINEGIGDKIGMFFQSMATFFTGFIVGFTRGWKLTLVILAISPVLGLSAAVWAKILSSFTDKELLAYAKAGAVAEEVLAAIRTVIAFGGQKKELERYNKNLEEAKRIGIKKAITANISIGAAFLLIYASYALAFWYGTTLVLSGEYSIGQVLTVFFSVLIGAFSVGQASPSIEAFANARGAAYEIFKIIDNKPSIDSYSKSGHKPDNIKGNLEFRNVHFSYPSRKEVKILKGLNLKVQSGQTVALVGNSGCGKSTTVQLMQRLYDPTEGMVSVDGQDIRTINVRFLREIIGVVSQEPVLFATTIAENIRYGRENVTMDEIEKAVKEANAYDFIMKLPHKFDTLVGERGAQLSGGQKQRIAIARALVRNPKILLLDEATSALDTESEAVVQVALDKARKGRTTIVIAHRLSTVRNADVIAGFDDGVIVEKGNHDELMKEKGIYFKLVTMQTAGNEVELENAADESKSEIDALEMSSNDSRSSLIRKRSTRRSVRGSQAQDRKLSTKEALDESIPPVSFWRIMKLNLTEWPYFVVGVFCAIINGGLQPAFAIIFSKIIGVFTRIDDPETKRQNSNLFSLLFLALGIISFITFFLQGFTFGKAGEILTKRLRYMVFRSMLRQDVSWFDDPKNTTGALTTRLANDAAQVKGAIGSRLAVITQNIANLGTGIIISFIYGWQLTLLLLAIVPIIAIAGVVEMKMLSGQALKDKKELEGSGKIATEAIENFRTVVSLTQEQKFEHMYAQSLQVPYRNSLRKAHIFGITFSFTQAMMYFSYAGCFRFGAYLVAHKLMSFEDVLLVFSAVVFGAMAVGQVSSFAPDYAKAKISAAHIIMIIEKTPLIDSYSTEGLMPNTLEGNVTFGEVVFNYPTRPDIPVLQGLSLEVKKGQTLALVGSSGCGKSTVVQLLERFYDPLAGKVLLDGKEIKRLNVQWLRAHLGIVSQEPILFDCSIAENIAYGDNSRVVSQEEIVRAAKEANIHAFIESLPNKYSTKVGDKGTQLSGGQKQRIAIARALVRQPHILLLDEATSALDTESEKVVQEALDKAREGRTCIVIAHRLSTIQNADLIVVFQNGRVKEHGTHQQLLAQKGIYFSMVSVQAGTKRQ

Compound: O=C1O[C@H]([C@@H](O)CO)C(O)=C1O [Ascorbic acid, ascorbic acid]
DPPH EC50 [1]: 0.89 ± 0.02 µg/mL
ORAC Activity [2]: 6.94 ± 0.58 mmol TE/g

Compound: CC(C)=CC[C@H](O)[C@@H](C)[C@H]1CC[C@@]2(C)C3=C(CC[C@]12C)[C@@]1(C)CC[C@H](O)[C@@](C)(C(=O)O)[C@@H]1CC3 [Compound 6, senexdiolic acid]
FSC ([3]; 20 μM): 2074
SSC ([3]; 20 μM): 861
FAR (fluorescence activity ratio) ([3]; 20 μM, Colo 320, rhodamine-123): 1.027
MIC [4]: > 100 µM
IC50 ([5]; Homo sapiens): > 100 µM
IC50 ([6]; Homo sapiens, MRC5): > 100 µM
IC50 ([7]; Homo sapiens): > 100 µM
MIC [8]: > 100 µM
MIC [9]: > 100 µM
MIC [10]: > 100 µM

Compound: COc1cccc2c1C(=O)c1c(O)c3c(c(O)c1C2=O)C[C@@](O)(C(=O)CO)C[C@@H]3O[C@H]1C[C@H](N)[C@H](O)[C@H](C)O1 [Doxorubicin, doxorubicin]
IC50 ([5]; Homo sapiens): 2.46 ± 0.26 µM
IC50 ([6]; Homo sapiens, MRC5): > 20 µM
IC50 ([7]; Homo sapiens): 7.44 ± 0.2 µM
Fraction affected ([11]; Doxo alone 0.135 uM): 0.6475
Fraction affected ([11]; Doxo alone 0.269 uM): 0.7257
Fraction affected ([11]; Doxo alone 0.539 uM): 0.8038
Fraction affected ([11]; Doxo alone 1.078 uM): 0.9263
Fraction affected ([11]; Doxo alone 4.311 uM): 0.9749
Dose Reduction Index (DRI) for experimental values [11, 12]: 1.374
Dose Reduction Index (DRI) for experimental values [11, 13]: 0.937
Dose Reduction Index (DRI) for experimental values [11, 14]: 0.702
Dose Reduction Index (DRI) for experimental values [11, 15]: 0.475
Dm (median-effect dose) in the combination [11]: 0.04246 µM
Dm (median-effect dose), drug alone [11]: 0.08504 µM

Compound: COc1cc2c(cc1OC)CN(CCc1ccc(NC(=O)c3cc(OC)c(OC)cc3NC(=O)c3cnc4ccccc4c3)cc1)CC2 [Tariquidar, reference compound]
FSC ([3]; 0.2 μM): 1945
SSC ([3]; 0.2 μM): 837
FAR (fluorescence activity ratio) ([3]; 0.2 μM, Colo 320, rhodamine-123): 5.533

Compound: ergosta-7,22-diene-3-one [Compound 8]
FSC ([3]; 2 μM): 2099
SSC ([3]; 2 μM): 857
FAR (fluorescence activity ratio) ([3]; 2 μM, Colo 320, rhodamine-123): 0.872
FL-1 (mean fluorescence of the cells) ([3]; 2 μM, Colo 320, rhodamine-123): 10.100
IC50 [5]: 11.7 ± 1.67 µM
IC50 [6]: 7.92 ± 1.42 µM
IC50 [7]: 8.43 ± 1.1 µM
Dose Reduction Index (DRI) for experimental values [11, 12]: 18.211
Dose Reduction Index (DRI) for experimental values [11, 13]: 10.119
Dose Reduction Index (DRI) for experimental values [11, 14]: 5.811
Dose Reduction Index (DRI) for experimental values [11, 15]: 2.045
Fraction affected ([11]; FuTo III alone 6.25 uM): 0.0295
Fraction affected ([11]; FuTo III alone 12.5 uM): 0.2522
Fraction affected ([11]; FuTo III alone 25 uM): 0.5605
Dm (median-effect dose) in the combination [11]: 0.4671 µM
combination index (CI) at the 50% growth inhibition dose (ED50) ([11]; compound 8 combined with doxorubicin, ratio 11.2:1, Colo 320, 72 h): 0.521 ± 0.15
Dm (median-effect dose), drug alone [11]: 21.37 µM

The next lines start with results.

FSC ([3]; 20 μM): 2005
SSC ([3]; 20 μM): 851
FAR (fluorescence activity ratio) ([3]; 20 μM, Colo 320, rhodamine-123): 1.139
MIC [4]: > 100 µM
MIC [8]: > 100 µM
MIC [9]: > 100 µM
MIC [10]: > 100 µM
Compound: CC(C)=CC[C@H](O)[C@@H](C)[C@H]1CC[C@@]2(C)C3=C(CC[C@]12C)[C@@]1(C)CC[C@@](C)(C(=O)O)[C@@H]1CC3 [Compound 1, 22S-hydroxy-8,24-dien-3-norlanosta-28-oic acid]
cytotoxic effect (in words) [5]: did not show any significant effect
IC50 ([5]; Homo sapiens): > 100 µM
IC50 ([6]; Homo sapiens, MRC5): > 100 µM
cytotoxic effect (in words) [6]: did not show any significant effect
cytotoxic effect (in words) [7]: did not show any significant effect
IC50 ([7]; Homo sapiens): > 100 µM

FSC ([3]; 20 μM): 2095
SSC ([3]; 20 μM): 891
FAR (fluorescence activity ratio) ([3]; 20 μM, Colo 320, rhodamine-123): 1.053
MIC [4]: > 100 µM
MIC [8]: > 100 µM
MIC [9]: > 100 µM
MIC [10]: > 100 µM
Compound: Cc1coc(C(=O)[C@@H](C)[C@H]2CC[C@@]3(C)C4=C(CC[C@]23C)[C@@]2(C)CC[C@@](C)(C(=O)O)[C@@H]2CC4)c1 [Compound 7, natalic acid]
cytotoxic effect (in words) [5]: did not show any significant effect
IC50 ([5]; Homo sapiens): > 100 µM
IC50 ([6]; Homo sapiens, MRC5): > 100 µM
cytotoxic effect (in words) [6]: did not show any significant effect
cytotoxic effect (in words) [7]: did not show any significant effect
IC50 ([7]; Homo sapiens): > 100 µM
